Source: patent publication US11369556B2, “Oral care composition comprising rottlerin” (Colgate-Palmolive Company, priority 2017, dated 2022)

Experiments:
S. oralis [1] = test: Metabolic activity of S. oralis, ATP assay; type: cell-based, Streptococcus oralis; conditions: for Reduction of Metabolic Activity: incubated 1 hour at 37° C.
Experimental: (§1) S. ovalis is a representative streptococcus species of bacteria that colonize the oral cavity and may serve as a representative species for the efficacy of antimicrobial agents. Table 4 (below) illustrates the effects of rottlerin on the metabolic activity and cell viability of S. ovalis when treated with various concentrations of rottlerin. The metabolic activity of the S. ovalis bacteria was measured through ATP assays, and the cell viability was measured using a resazurin assay.
Similarly, the metabolic activity was measured through an ATP assay as follows: A culture of S. oralis bacteria was grown and standardized to a 610˜0.6 OD. 500 μl of the S. ovalis bacteria culture was then transferred to a clean and sterile micro-centrifuge tube and treated as above. Three 100 μl samples from each tube were then individually plated in individual wells of a 96-well plate and 100 μl of Bactitre glow ATP reagent was added. The metabolic activity of the S. oralis bacteria was then monitored by measuring luminescence, with an increase in luminescence correlating with higher metabolic cells.

S. oralis [2] = test: 10-hour bacterial growth, optical density readings, S. oralis; type: cell-based, Streptococcus oralis
Experimental: (§2) In particular, Tables 1-3 illustrate 10-hour bacterial growth in terms of optical density (OD) readings taken at one-hour intervals, where the density readings represent the amount of bacteria present.
(§3) The bacterial cultures were grown overnight and standardized to a 0.05 OD reading, after which, different concentrations of rottlerin were added, and the bacterial growth was monitored hourly for 10 hours using a plate reader.
Table 1 illustrates three examples of S. oralis bacterial growth: one showing the untreated growth of S. oralis, another showing the growth of S. oralis after treatment with 10 μM of rottlerin, and a final example showing the growth of S. oralis after treatment with 20 μM of rottlerin.

S. oralis [3] = test: Cell viability of S. oralis, resazurin assay; type: cell-based, Streptococcus oralis; conditions: for Cell Viability: incubated 1 hour at 37° C.
Experimental: as §1
In particular, the cell viability of S. oralis was measured through a resazurin assay as follows: A culture of S. oralis bacteria was grown and standardized to a 610˜0.6 OD. 500 μl of the S. oralis bacteria culture was then transferred to a clean and sterile micro-centrifuge tube. The tube was then centrifuged at greater than 15,000 g for 10 minutes to pellet the bacteria. The tube samples were then treated with different amounts of rottlerin and resuspended in 1 ml of 0.25× Trypticase soy broth (TSB) in water. Control and dead samples were created by resuspending the pellet bacteria in sterile media or 100% ethanol, and without adding rottlerin. The tubes were then inverted 3 times for mixing and incubated at 37° C. for 1 hour. Afterwards, 1 ml of D/E neutralizing broth was added to each tube and the samples in the tubes were then washed and stained. The tubes were then centrifuged at greater than 15,000 g for 10 minutes to pellet the bacteria again. The supernate was then removed and the bacteria was resuspended in 1 ml of sterile 0.25× TSB wash. Three 100 μl samples from each tube were then each individually plated in individual wells of a 96-well plate. The samples were then prepared for a standard analytic curve by combining fixed ratios of the live and dead control samples. 100 μl of the resazurin dye solution were then added to each well, and the 96-well plate was then incubated at 37° C. until the live control samples turned the appropriate pink color. A fluorescence plate reader was then used to read the fluorescence of the resazurin dye at 560 nm excitation/590 nm emission, and a percentage of live and dead cells was then calculated.

[4] = tested on: mixed species, equal amounts of S. oralis, S. mutans, and A. viscosus; test: 10-hour bacterial growth, optical density readings, mixed species; type: cell-based
Experimental: as §2, §3
Finally, Table 3 illustrates three examples of mixed species bacterial growth, including equal amounts of S. oralis, S. mutans, and A. viscosus species: an untreated growth, a growth of the mixed species after treatment with 10 μM of rottlerin, and a growth of the mixed species after treatment with 20 μM of rottlerin.

A. viscosus = test: 10-hour bacterial growth, optical density readings, A. viscosus; type: cell-based, Actinomyces viscosus
Experimental: as §2, §3
Table 2 illustrates three examples of A. viscosus bacterial growth: an untreated A. viscosus growth, a growth of A. viscosus after treatment with 10 μM of rottlerin, and a growth of A. viscosus after treatment with 20 μM of rottlerin.

[5] = low concentrations of rottlerin

CC(=O)c1c(O)c(C)c(O)c(Cc2c(O)c3c(c(C(=O)/C=C/c4ccccc4)c2O)OC(C)(C)C=C3)c1O [rottlerin, 5,7-dihydro-2,2-dimethyl-6-(2,4,6-trihydroxy-3-methyl-5-acetylbenzyl)-8-cinnamoyl-1,2-chromene]
Reduction of Metabolic Activity (S. oralis [1]; Rottlerin Amt. 0.25 μg): 40% | Reduction of Metabolic Activity (S. oralis [1]; Rottlerin Amt. 1.25 μg): 51% | Reduction of Metabolic Activity (S. oralis [1]; Rottlerin Amt. 2.5 μg): 60% | Reduction of Metabolic Activity (S. oralis [1]; Rottlerin Amt. 5 μg): 61% | Reduction of Metabolic Activity (S. oralis [1]; Rottlerin Amt. 10 μg): 72% | Reduction of Metabolic Activity (S. oralis [1]; Rottlerin Amt. 12.5 μg): 75% | metabolic activity of S. oralis (S. oralis [1]; [5]): significantly negatively affected | S. oralis growth (OD) (S. oralis [2]; 10 μM, exposure time 1 hour): 0.10 OD | S. oralis growth (OD) (S. oralis [2]; 10 μM, exposure time 2 hours): 0.095 OD | S. oralis growth (OD) (S. oralis [2]; 10 μM, exposure time 3 hours): 0.091 OD | S. oralis growth (OD) (S. oralis [2]; 10 μM, exposure time 4 hours): 0.088 OD | S. oralis growth (OD) (S. oralis [2]; 10 μM, exposure time 5 hours): 0.089 OD | S. oralis growth (OD) (S. oralis [2]; 10 μM, exposure time 6 hours): 0.091 OD | S. oralis growth (OD) (S. oralis [2]; 10 μM, exposure time 7 hours): 0.088 OD | S. oralis growth (OD) (S. oralis [2]; 10 μM, exposure time 8 hours): 0.075 OD | S. oralis growth (OD) (S. oralis [2]; 10 μM, exposure time 9 hours): 0.075 OD | S. oralis growth (OD) (S. oralis [2]; 10 μM, exposure time 10 hours): 0.074 OD | S. oralis growth (OD) (S. oralis [2]; 20 μM, exposure time 1 hour): 0.098 OD | S. oralis growth (OD) (S. oralis [2]; 20 μM, exposure time 2 hours): 0.099 OD | S. oralis growth (OD) (S. oralis [2]; 20 μM, exposure time 3 hours): 0.089 OD | S. oralis growth (OD) (S. oralis [2]; 20 μM, exposure time 4 hours): 0.088 OD | S. oralis growth (OD) (S. oralis [2]; 20 μM, exposure time 5 hours): 0.091 OD | S. oralis growth (OD) (S. oralis [2]; 20 μM, exposure time 6 hours): 0.090 OD | S. oralis growth (OD) (S. oralis [2]; 20 μM, exposure time 7 hours): 0.090 OD | S. oralis growth (OD) (S. oralis [2]; 20 μM, exposure time 8 hours): 0.081 OD | S. oralis growth (OD) (S. oralis [2]; 20 μM, exposure time 9 hours): 0.080 OD | S. oralis growth (OD) (S. oralis [2]; 20 μM, exposure time 10 hours): 0.079 OD | growth of bacteria compared to an untreated control (S. oralis [2]; S. oralis, low concentrations of rottlerin (Table 1)): significantly reduced | Cell Viability (S. oralis [3]; Rottlerin Amt. 0.25 μg): 79.5% | Cell Viability (S. oralis [3]; Rottlerin Amt. 1.25 μg): 61% | Cell Viability (S. oralis [3]; Rottlerin Amt. 2.5 μg): 49.4% | Cell Viability (S. oralis [3]; Rottlerin Amt. 5 μg): 41.1% | Cell Viability (S. oralis [3]; Rottlerin Amt. 10 μg): 25.9% | Cell Viability (S. oralis [3]; Rottlerin Amt. 12.5 μg): 19.9% | cell viability of S. oralis (S. oralis [3]; [5]): significantly negatively affected | Mixed species growth (OD) ([4]; 10 μM, exposure time 1 hour): 0.088 OD | Mixed species growth (OD) ([4]; 10 μM, exposure time 3 hours): 0.083 OD | Mixed species growth (OD) ([4]; 10 μM, exposure time 4 hours): 0.081 OD | Mixed species growth (OD) ([4]; 10 μM, exposure time 5 hours): 0.082 OD | Mixed species growth (OD) ([4]; 10 μM, exposure time 6 hours): 0.079 OD | Mixed species growth (OD) ([4]; 10 μM, exposure time 7 hours): 0.076 OD | Mixed species growth (OD) ([4]; 10 μM, exposure time 8 hours): 0.073 OD | Mixed species growth (OD) ([4]; 10 μM, exposure time 9 hours (head of second time column, c2)): 0.085 OD | Mixed species growth (OD) ([4]; 10 μM, exposure time 10 hours): 0.070 OD | Mixed species growth (OD) ([4]; 20 μM, exposure time 1 hour): 0.089 OD | Mixed species growth (OD) ([4]; 20 μM, exposure time 3 hours): 0.090 OD | Mixed species growth (OD) ([4]; 20 μM, exposure time 4 hours): 0.089 OD | Mixed species growth (OD) ([4]; 20 μM, exposure time 5 hours): 0.088 OD | Mixed species growth (OD) ([4]; 20 μM, exposure time 6 hours): 0.085 OD | Mixed species growth (OD) ([4]; 20 μM, exposure time 7 hours): 0.082 OD | Mixed species growth (OD) ([4]; 20 μM, exposure time 8 hours): 0.076 OD | Mixed species growth (OD) ([4]; 20 μM, exposure time 9 hours (head of second time column, c2)): 0.091 OD | Mixed species growth (OD) ([4]; 20 μM, exposure time 10 hours): 0.071 OD | growth of bacteria compared to an untreated control ([4]; mixed species, low concentrations of rottlerin (Table 3)): significantly reduced | A. viscosus growth (OD) (A. viscosus; 10 μM, exposure time 1 hour): 0.105 OD | A. viscosus growth (OD) (A. viscosus; 10 μM, exposure time 2 hours): 0.112 OD | A. viscosus growth (OD) (A. viscosus; 10 μM, exposure time 3 hours): 0.104 OD | A. viscosus growth (OD) (A. viscosus; 10 μM, exposure time 4 hours): 0.093 OD | A. viscosus growth (OD) (A. viscosus; 10 μM, exposure time 5 hours): 0.091 OD | A. viscosus growth (OD) (A. viscosus; 10 μM, exposure time 6 hours): 0.087 OD | A. viscosus growth (OD) (A. viscosus; 10 μM, exposure time 7 hours): 0.084 OD | A. viscosus growth (OD) (A. viscosus; 10 μM, exposure time 8 hours): 0.085 OD | A. viscosus growth (OD) (A. viscosus; 10 μM, exposure time 9 hours): 0.082 OD | A. viscosus growth (OD) (A. viscosus; 10 μM, exposure time 10 hours): 0.079 OD | A. viscosus growth (OD) (A. viscosus; 20 μM, exposure time 1 hour): 0.105 OD | A. viscosus growth (OD) (A. viscosus; 20 μM, exposure time 2 hours): 0.122 OD | A. viscosus growth (OD) (A. viscosus; 20 μM, exposure time 3 hours): 0.121 OD | A. viscosus growth (OD) (A. viscosus; 20 μM, exposure time 4 hours): 0.115 OD | A. viscosus growth (OD) (A. viscosus; 20 μM, exposure time 5 hours): 0.113 OD | A. viscosus growth (OD) (A. viscosus; 20 μM, exposure time 6 hours): 0.106 OD | A. viscosus growth (OD) (A. viscosus; 20 μM, exposure time 7 hours): 0.1 OD | A. viscosus growth (OD) (A. viscosus; 20 μM, exposure time 8 hours): 0.097 OD | A. viscosus growth (OD) (A. viscosus; 20 μM, exposure time 9 hours): 0.091 OD | A. viscosus growth (OD) (A. viscosus; 20 μM, exposure time 10 hours): 0.086 OD | growth of bacteria compared to an untreated control (A. viscosus; A. viscosus, low concentrations of rottlerin (Table 2)): significantly reduced
